Tests used:
Type in all cases: cell-based
[1] = tested on: Rhizomucor miehei; experiment: Antifungal activity in vitro, resazurin growth inhibition: Rhizomucor miehei (IHEM13391)
Method in brief: (§1)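 Resazurin conversion to fluorescent resorufin (ex 550/em 590 nm) served as the growth readout. Compounds spanned 2- or 4-fold serial dilutions with 64 μM top in-test concentration; inoculum 10^3 cfu per well in MOPS-buffered RPMI-1640 (pH 7.0, 2% glucose). Incubation species-dependent, dermatophytes at 27° C. for ≥1 week.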

[2] = tested on: Sporothrix schenkii; experiment: Antifungal activity in vitro, resazurin growth inhibition: Sporothrix schenkii (B62482)
Method in brief: as §1

[3] = tested on: Trichophyton mentagrophytes; experiment: Antifungal activity in vitro, resazurin growth inhibition: Trichophyton mentagrophytes (B70554)
Method in brief: (§2)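 Dermatophytes incubated at 27° C. for one week or more with compound, max 64 μM, in RPMI-1640/MOPS pH 7.0±0.1, 10^3 cfu/well. Viability by resazurin-to-resorufin fluorescence, 550/590 nm.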

[4] = tested on: Scedosporium apiospermum; experiment: Antifungal activity in vitro, resazurin growth inhibition: Scedosporium apiospermum (IHEM3817)
Method in brief: as §1

[5] = tested on: Rhizopus oryzae; experiment: Antifungal activity in vitro, resazurin growth inhibition: Rhizopus oryzae (IHEM5223)
Method in brief: as §1

[6] = tested on: Scedosporium prolificans; experiment: Antifungal activity in vitro, resazurin growth inhibition: Scedosporium prolificans (IHEM21157)
Method in brief: as §1

[7] = tested on: Cryptococcus neoformans; experiment: Antifungal activity in vitro, resazurin growth inhibition: Cryptococcus neoformans (B66663)
Method in brief: as §1

[8] = tested on: Microsporum canis; experiment: Antifungal activity in vitro, resazurin growth inhibition: Microsporum canis (B68128)
Method in brief: as §2

[9] = tested on: Candida parapsilosis; experiment: Antifungal activity in vitro, resazurin growth inhibition: Candida parapsilosis (B66126)
Method in brief: as §1

[10] = tested on: Aspergillus fumigatus; experiment: Antifungal activity in vitro, resazurin growth inhibition: Aspergillus fumigatus (B42928)
Method in brief: as §1

[11] = tested on: Trichophyton rubrum; experiment: Antifungal activity in vitro, resazurin growth inhibition: Trichophyton rubrum (B68183)
Method in brief: as §2

| Compound | Inf. K: Rhizomucor miehei IHEM13391, pIC50 [1] | Inf. A: Sporothrix schenkii B62482, pIC50 [2] | Inf. G: Trichophyton mentagrophytes B70554, pIC50 [3] | Inf. H: Scedosporium apiospermum IHEM3817, pIC50 [4] | Inf. J: Rhizopus oryzae IHEM5223, pIC50 [5] | Inf. I: Scedosporium prolificans IHEM21157, pIC50 [6] | Inf. F: Cryptococcus neoformans B66663, pIC50 [7] | Inf. B: Microsporum canis B68128, pIC50 [8] | Inf. D: Candida parapsilosis B66126, pIC50 [9] | Inf. E: Aspergillus fumigatus B42928, pIC50 [10] | Inf. C: Trichophyton rubrum B68183, pIC50 [11] |
| --- | --- | --- | --- | --- | --- | --- | --- | --- | --- | --- | --- |
| Fc1ccc2oc(C3=NCc4ccc(Cl)cc4-n4cccc43)cc2c1 [Compound 124] | <4.19 | 5.10 | 5.75 | <4.19 | 5.08 | 5.90 | 6.32 | 5.63 | <4.19 | 6.25 | 6.22 |
| Fc1ccc2oc(C3=NCc4c(Cl)cc(Cl)cc4-n4cccc43)cc2c1 [Compound 125] | <4.19 | 4.91 | 5.55 | 5.31 | <4.19 | 6.05 | 5.69 | 5.85 | <4.19 | 5.70 | 5.72 |
| Clc1cccc2c1CN=C(c1cc3cccc(Cl)c3o1)c1cccn1-2 [Compound 126] | <4.19 | <4.19 | 6.34 | 5.45 | <4.19 | 6.64 | 5.18 | 6.33 | <4.19 | 6.29 | 6.87 |
| Fc1cccc2cc(C3=NCc4c(Cl)cccc4-n4cccc43)oc12 [Compound 127] | <4.19 | <4.19 | 6.40 | 4.80 | <4.19 | 6.64 | 5.22 | 6.44 | <4.19 | 6.31 | 6.94 |
| Fc1cc(F)c2oc(C3=NCc4c(Cl)cccc4-n4cccc43)cc2c1 [Compound 128] | <4.19 | <4.19 | 6.30 | <4.19 | <4.19 | 7.10 | 4.69 | 6.02 | <4.19 | 5.99 | 6.87 |
| Cc1cccc2cc(C3=NCc4ccccc4-n4cccc43)oc12 [Compound 130] | 4.91 | 5.50 | 6.79 | 6.01 | 4.95 | 5.08 | 6.31 | 6.70 | 5.35 | 6.00 | 7.69 |
| Cc1cccc2c1CN=C(c1cc3cccc(C)c3o1)c1cccn1-2 [Compound 131] | 4.59 | 5.51 | 6.31 | 5.355 | <4.34 | 5.99 | 6.11 | 6.50 | 4.81 | 6.11 | 7.10 |
| Cc1ccc2oc(C3=NCc4c(Cl)cccc4-n4cccc43)cc2c1 [Compound 134] | <4.19 | 4.50 | 6.66 | <4.19 | <4.19 | 6.48 | <4.19 | 6.68 | 4.54 | 5.66 | 7.16 |
| Cc1ccc2cc(C3=NCc4ccccc4-n4cccc43)oc2c1 [Compound 137] | 4.50 | 5.52 | 6.89 | 5.16 | 4.48 | 6.21 | 5.10 | 6.81 | 4.74 | 6.00 | 7.18 |
| Cc1ccc2cc(C3=NCc4c(Cl)cccc4-n4cccc43)oc2c1 [Compound 138] | <4.19 | <4.19 | 6.83 | 5.78 | <4.19 | 6.32 | <4.19 | 6.99 | <4.19 | <4.19 | 6.83 |
| Cc1ccc2cc(C3=NCc4c(C)cccc4-n4cccc43)oc2c1 [Compound 140] | 4.68 | 6.23 | 6.11 | 5.35 | <4.19 | 6.36 | 4.60 | 6.44 | 4.34 | 5.05 | 7.50 |
| COc1cccc2cc(C3=NCc4c(Cl)cccc4-n4cccc43)oc12 [Compound 141] | <4.19 | <4.19 | 7.64 | <4.19 | <4.19 | 5.05 | <4.19 | 6.88 | <4.19 | <4.19 | 6.86 |
| COc1cccc2cc(C3=NCc4c(C)cccc4-n4cccc43)oc12 [Compound 144] | 4.44 | 5.69 | 7.45 | 4.71 | <4.19 | 6.26 | 5.31 | 6.49 | 4.57 | 5.62 | >8.41 |
| COc1ccc2oc(C3=NCc4c(Cl)cccc4-n4cccc43)cc2c1 [Compound 146] | <4.19 | <4.19 | 5.44 | <4.19 | <4.19 | 4.80 | <4.19 | 5.76 | <4.19 | <4.19 | 6.19 |
| Fc1cccc2cc(C3=NCc4c(Cl)cc(Cl)cc4-n4cccc43)oc12 [Compound 149] | <4.19 | <4.19 | 5.61 | <4.19 | <4.19 | 5.79 | 4.81 | 5.35 | <4.19 | 5.47 | 6.10 |
| Clc1cccc2c1CN=C(c1ccc3ccoc3c1)c1cccn1-2 [Compound 150] | <4.19 | 5.52 | 6.15 | <4.19 | <4.19 | 5.93 | 4.57 | 6.14 | 4.68 | 6.00 | 8.25 |

Source: patent US9493468B2, “Antifungal 5,6-dihydro-4H-pyrrolo[1,2-a][1,4]benzo-diazepines and 6H-pyrrolo[1,2-a][1,4]benzodiazepines substituted with heterocyclic derivatives” (Janssen Pharmaceutica NV, priority 2011, dated 2016)
